In brackets after ≈: the same amount, converted by molar mass. Read-outs that look alike come from different tables or passages of the source.
What was measured:
[1] = test system: red blood cells (5% RBC suspension); experiment: Test Example 2-2: in vitro hemolytic activity test (upper limit 200 μmol/L); assay type: cell-based; conditions: Test Example 2-2, hemolysis method 200 (upper concentration 200 μmol/L), 5% RBC suspension, 37° C., one hour, read-out: hemolysis IC50
Method: Nephrotoxic potentials of the compounds of the present invention whose X is —N(R^F)—CO—X^1 and X^1 is the group represented by formula (III) and T is —N(R^a5)— were investigated by in vitro hemolytic activity test under the condition that the upper limit was 200 μmol/L as the required concentration to 50% of hemolysis (IC50).
Defibrinated sterile blood was centrifuged at 700×g for 3 minutes and, and the supernatant was removed for 100% of red blood cells. After the cleaning with physiological saline, the washed blood cells was suspended in the medium (Earle's balanced salt sodium, bicarbonate, 0.1 g/L L-glutamine without phenol red), and was diluted by 5% (5% RBC suspension).
The washed blood was diluted by 5% in water for injection (solution of complete hemolysis), and was used as the indication of optical density for complete hemolysis.
The compounds of the present invention solution in DMSO (several and doubling dilutions starting from 10 mmol/L), DMSO as the negative control, and Amphotericin B as the positive control were used, and each 5 μL of these was added in to a well of V-form 96 well type microplate. Finally, the maximum concentration of the compounds of the present invention solution in DMSO was 200 μmol/L by adding 245 μL of the medium or 5% RBC suspension into the well.
Two hundred fifty μL of the solution of complete hemolysis was added into another well and the microplate was incubated at 37° C. in 5% of CO2 concentration for an hour.
After the incubation, each 100 μL of supernatants in wells was collected by centrifugation of the microplate at 300×g for 5 minutes and was located on a well of flat-form 96 well type microplate. An absorbance of each supernatant was measured at wavelength of 540 nm.
Percent hemolysis was calculated by using the followed equation. The required concentration to 50% of hemolysis (IC50) was calculated based on the percent hemolysis. […] Hemolysis (%)=(CR−VM)×100÷(VL−VR) Where:
CR: Absorbance of 5% RBC suspension incubated with the compounds of the present invention solution in DMSO
VM: Absorbance of medium incubated with the compounds of the present invention solution in DMSO
VL: Absorbance of solution of complete hemolysis
VR: Absorbance of 5% RBC suspension incubated with DMSO
The “>200” in the table means above IC50 value exceeded the upper concentration 200 μmol/L.

[2] = test system: C. albicans ATCC90028; experiment: Antifungal activity test, MIC by broth microdilution (CLSI M27-A3); assay type: cell-based; conditions: C. albicans ATCC90028, broth microdilution, 35° C., 24-48 hours, 100% inhibition
Method in brief: (§1)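 CLSI broth microdilution in RPMI 1640 with 2% glucose, 0.165 mol/L MOPS, pH 7.0; two-fold DMSO dilutions. MIC = lowest concentration giving 100% inhibition versus growth control.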

[3] = test system: A. flavus ATCC204304; experiment: Antifungal activity test, MIC by broth microdilution (CLSI M38-A2); assay type: cell-based; conditions: A. flavus ATCC204304, broth microdilution, 35° C., 24-48 hours, 100% inhibition
Method in brief: as §1

[4] = test system: A. fumigatus ATCC204305; experiment: as above; assay type: cell-based; conditions: A. fumigatus ATCC204305, broth microdilution, 35° C., 24-48 hours, 100% inhibition
Method in brief: as §1

[5] = Test Example 4: nephrotoxicity, kidney marker gene expression by quantitative RT-PCR after intravenous administration; assay type: in vivo; conditions: mouse, kidney, mice, nephrotoxicity positive when ΔΔCt of two-third of target genes (Kim1, Timp1, Lcn2) >3
Method: The expression level of marker genes for nephrotoxicity was determined by quantitative RT-PCR to evaluate nephrotoxicity of the compound of the present invention. The compound of the present invention or vehicle was intravenously administered to mice and their kidneys were isolated. After removal of the kidney capsule, all of the kidneys were sliced into two equal halves, and stored at −80° C. in RNAlater® (Ambion) until use. Samples were disrupted and homogenized in QIAzol Lysis Reagent with TissueLyser (Qiagen), and total RNA was extracted using an RNeasy® Mini kit (Qiagen). Total RNA concentrations were determined to read OD260 by absorptiometer.
The level of expression of the following target genes was determined using one-step quantitative real-time PCR: Kim1, Timp1, and Lcn2. Total RNA (80 ng/2 μL) was used as the template, and TaqMan Gene Expression Assays (Applied Biosystems, for Haver1 (Kim1), assay ID: Mm00506686_m1; Timp1, Mm01341361_m1; Lcn2, Mm01324470_m1) or TaqMan Endogenous Controls (Gapdh, predesigned assay reagent supplied by ABI, Applied Biosystems) were employed as gene-specific probe and primer sets. Quantitative RT-PCR was performed using a QuantiTect™ Probe RT-PCR kit (Qiagen), and transcript levels were quantitated with an Applied Biosystems 7900HT Fast Real Time PCR System (Applied Biosystems). Reverse transcription and amplification conditions were set as follows: 50° C. for 30 min, 95° C. for 15 min, followed by 40 cycles at 95° C. for 15 s and 60° C. for 1 min. The resulting cycle threshold (Ct) value was processed based on the comparative Ct method (ΔΔCt Method), where Gapdh was used as an endogenous reference gene to normalize the expression level of target genes.
The ΔCt was calculated as follows: Ct, Gapdh−Ct, target gene.
The ΔΔCt was calculated as follows: ΔCt, treated sample−ΔCt, average of vehicle control sample.
Higher ΔΔCt values indicate higher expression rates of the target gene and therefore high risk for nephrotoxicity.

[6] = test system: red blood cells (5% RBC suspension); experiment: Test Example 2-1: in vitro hemolytic activity test (upper limit 50, 80, 100 or 200 μmol/L); assay type: cell-based; conditions: Erythrocyte, 1 h, read-out: hemolysis IC50
Method in brief: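 A 5% suspension of washed red cells in Earle's medium was exposed to doubling dilutions of compound from DMSO, with maxima of 50, 80, 100 or 200 μmol/L final, for 1 h at 37 °C, 5% CO2. Supernatant absorbance at 540 nm was normalised to water-lysed cells. IC50 is the concentration giving 50% hemolysis; ">" values exceed the top concentration.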

[7] = Candida albicans, read-out: MIC
[8] = Aspergillus flavus, read-out: MIC
[9] = Aspergillus fumigatus, read-out: MIC

Row | SMILES | IC50 [1] | MIC [2] | MIC [3] | MIC [4] | also measured
1 | C[C@@H]1[C@H](O)[C@@H](C)/C=C/C=C/C=C/C=C/C=C/C=C/C=C/[C@H](O[C@@H]2O[C@H](C)[C@@H](O)[C@H](N)[C@@H]2O)C[C@@H]2O[C@](O)(C[C@@H](O)C[C@@H](O)[C@H](O)CC[C@@H](O)C[C@@H](O)CC(=O)O[C@H]1C)C[C@H](O)[C@H]2NC(=O)NNC(=O)C[C@H](O)CO [I-237] | > 200 µM | 0.5 µg/mL (≈ 0.474 µM) | 0.5 µg/mL (≈ 0.474 µM) | 1 µg/mL (≈ 0.948 µM) | 
2 | C[C@@H]1[C@H](O)[C@@H](C)/C=C/C=C/C=C/C=C/C=C/C=C/C=C/[C@H](O[C@@H]2O[C@H](C)[C@@H](O)[C@H](N)[C@@H]2O)C[C@@H]2O[C@](O)(C[C@@H](O)C[C@@H](O)[C@H](O)CC[C@@H](O)C[C@@H](O)CC(=O)O[C@H]1C)C[C@H](O)[C@H]2NC(=O)NNC(=O)C(CO)CO [I-240] | > 200 µM | 0.5 µg/mL (≈ 0.474 µM) | 0.5 µg/mL (≈ 0.474 µM) | 1 µg/mL (≈ 0.948 µM) | 
3 | C[C@@H]1[C@H](O)[C@@H](C)/C=C/C=C/C=C/C=C/C=C/C=C/C=C/[C@H](O[C@@H]2O[C@H](C)[C@@H](O)[C@H](N)[C@@H]2O)C[C@@H]2O[C@](O)(C[C@@H](O)C[C@@H](O)[C@H](O)CC[C@@H](O)C[C@@H](O)CC(=O)O[C@H]1C)C[C@H](O)[C@H]2NC(=O)NNC(=O)CCC(=O)O [I-261] | > 200 µM | 0.5 µg/mL (≈ 0.475 µM) | 0.5 µg/mL (≈ 0.475 µM) | 1 µg/mL (≈ 0.949 µM) | 
4 | C[C@@H]1[C@H](O)[C@@H](C)/C=C/C=C/C=C/C=C/C=C/C=C/C=C/[C@H](O[C@@H]2O[C@H](C)[C@@H](O)[C@H](N)[C@@H]2O)C[C@@H]2O[C@](O)(C[C@@H](O)C[C@@H](O)[C@H](O)CC[C@@H](O)C[C@@H](O)CC(=O)O[C@H]1C)C[C@H](O)[C@H]2NC(=O)NNC(CO)CO [I-272] |  |  |  |  | IC50 ([1]; Erythrocyte, 1 h): > 200 µM; MIC [2, 7]: 0.25 µg/mL (≈ 0.243 µM); MIC [3, 8]: 0.5 µg/mL (≈ 0.487 µM); MIC [4, 9]: 0.5 µg/mL (≈ 0.487 µM)
5 | C[C@@H]1[C@H](O)[C@@H](C)/C=C/C=C/C=C/C=C/C=C/C=C/C=C/[C@H](O[C@@H]2O[C@H](C)[C@@H](O)[C@H](N)[C@@H]2O)C[C@@H]2O[C@](O)(C[C@@H](O)C[C@@H](O)[C@H](O)CC[C@@H](O)C[C@@H](O)CC(=O)O[C@H]1C)C[C@H](O)[C@H]2NC(=O)NNC[C@@H](O)C(=O)O [I-310] |  |  |  |  | IC50 ([1]; Erythrocyte, 1 h): > 200 µM; MIC [2, 7]: 0.5 µg/mL (≈ 0.48 µM); MIC [3, 8]: 0.5 µg/mL (≈ 0.48 µM); MIC [4, 9]: 1 µg/mL (≈ 0.96 µM)
6 | C[C@@H]1[C@H](O)[C@@H](C)/C=C/C=C/C=C/C=C/C=C/C=C/C=C/[C@H](O[C@@H]2O[C@H](C)[C@@H](O)[C@H](NC(=N)N)[C@@H]2O)C[C@@H]2O[C@](O)(C[C@@H](O)C[C@@H](O)[C@H](O)CC[C@@H](O)C[C@@H](O)CC(=O)O[C@H]1C)C[C@H](O)[C@H]2CO [I-394] |  |  |  |  | MTD [5]: > 24 mg/kg
7 | C[C@@H]1[C@H](O)[C@@H](C)/C=C/C=C/C=C/C=C/C=C/C=C/C=C/[C@H](O[C@@H]2O[C@H](C)[C@@H](O)[C@H](N)[C@@H]2O)C[C@@H]2O[C@](O)(C[C@@H](O)C[C@@H](O)[C@H](O)CC[C@@H](O)C[C@@H](O)CC(=O)O[C@H]1C)C[C@H](O)[C@H]2C(=O)NC(CO[C@H]1O[C@H](CO)[C@@H](O)[C@H](O)[C@@H]1O)CO[C@H]1O[C@H](CO)[C@@H](O)[C@H](O)[C@@H]1O [I-396] |  |  |  |  | MTD [5]: 16 mg/kg; IC50 [6]: > 100 µM
